Experimental data published in US11208443B2, “NAF-1 derived peptides and uses thereof” (YISSUM RESEARCH DEVELOPMENT COMPANY OF THE HEBREW …, priority 2017, dated 2021).
Where two headings read alike, the source gives them in different places. Non-standard residues stand in square brackets, D forms with d. Residues, ends and D or L forms follow the SMILES beside them. No end group written: not given here. PEG8 = NCCOCCOCCOCCOCCOCCOCCOCCOCCC(=O)O

Assays:
[1] = Cell viability of malignant cells (Examples 1, 6, 10); format: cell-based, human
Description: (§1) However, substitution of several amino acids to Ala drastically diminished the toxicity of these analogs.

MCF-10A cells [2] = test system: MCF-10A cells
Experimental: The ability of the peptide having the sequence SEQ ID NO: 1 to penetrate into the cells and its effect on cells' viability was tested as following. Green fluorescein was conjugated to the peptide having SEQ ID NO: 1 (the labeled peptide is referred as PEP-FL). Then, the fluorescent peptide was incubated with normal, non-tumor epithelial cell line (MCF-10A) and malignant (MDA-MB-231) breast epithelial cells. The mitochondria of the cells were labeled red with RPA and the cells' nuclei were labeled with Hoechst 33342 (blue dye).

MDA-MB-231 cells [3] = experiment: Cell viability of malignant cells (Examples 1, 6, 10); format: cell-based, human
Description: as §1

MDA-MB-231 cells [4] = experiment: Penetration of fluorescein-labeled peptide into malignant cells; format: cell-based, human; settings: FIG. 2, FIG. 6A
Experimental: (§2) To elucidate the site of action of the peptide having SEQ ID NO: 1, the peptide was labeled as described in Example 1 and incubated with normal and malignant cells (MCF-10A and MDA-MB-231 cells, respectively). […] Without being bound to any specific theory it was estimates that the peptide affects or disrupts the structure of the mitochondrial and nuclear membrane.
(§3) In addition to D-PEP peptide (SEQ ID NO:3), in which all amino acids of SEQ ID NO: 1 were substituted to D-amino acids, a peptide comprising only 3 D-amino acids was produced and has the sequence FLGVLALLGyLAVRPfLPKkKQQK (SEQ ID NO: 2, referred as 3D-PEP). This peptide, as well as D-PEP, both marked with Fluorescein, were tested for their ability to penetrate into non-tumor MCF-10A and malignant MDA-MB-231 and for their toxicity, as described in Example 3. Briefly, cells were incubated with 10 μM of each sample of the peptides for 3 h and then intensively washed. Cell fluorescence was observed by semi-confocal microscope. For cell viability measurement, cells were incubated with 10 μM or 5 μM of each one of the peptides for 5 days and then cell viability was assayed using Alamar blue assay.

MDA-MB-231 cells [5] = experiment: Effect of labeled peptide on mitochondria and nuclei, confocal imaging; format: cell-based, human
Experimental: as §2

MCF-10A cells [6] = experiment: Penetration of fluorescein-labeled peptide into non-malignant cells; format: cell-based; settings: FIG. 2
Experimental: as §2, §3

MCF-10A cells [7] = experiment: Effect of labeled peptide on nuclei, confocal imaging; format: cell-based; settings: FIG. 6C
Experimental: as §2

chymotrypsin = experiment: Stability against protease cleavage, HPLC; format: in vitro ADME
Experimental: Stability of the D-PEP, and 3D-PEP, analogs, and of PEG-N-3D-PEP and PEG-C-3D-PEP conjugates against protease cleavage (chymotrypsin and trypsin) was tested and compared to stability of the native peptide having SEQ ID NO: 1. To peptides' stocks of 430 μl in concentration of 450 μM were added 0.001 mg/ml protease (Trypsin or Chymotrypsin) and incubated in room temperature (22° C.). Samples of 40 μl were taken before adding the protease and after every 15 min in the first hour, and after 2 […] and 24 h. To stop the proteolysis samples were added 7 μl of 2% TFA in TDW. The samples were added 60 μl TDW and were analyzed using analytical HPLC.

## CC(C)C[C@H](NC(=O)[C@H](C)NC(=O)[C@H](CC(C)C)NC(=O)[C@@H](NC(=O)CNC(=O)[C@H](CC(C)C)NC(=O)[C@@H](N)Cc1ccccc1)C(C)C)C(=O)N[C@@H](CC(C)C)C(=O)NCC(=O)N[C@H](Cc1ccc(O)cc1)C(=O)N[C@@H](CC(C)C)C(=O)N[C@@H](C)C(=O)N[C@H](C(=O)N[C@@H](CCCNC(=N)N)C(=O)N1CCC[C@H]1C(=O)N[C@H](Cc1ccccc1)C(=O)N[C@@H](CC(C)C)C(=O)N1CCC[C@H]1C(=O)N[C@@H](CCCCN)C(=O)N[C@H](CCCCN)C(=O)N[C@@H](CCCCN)C(=O)N[C@@H](CCC(N)=O)C(=O)N[C@@H](CCC(N)=O)C(=O)N[C@@H](CCCCN)C(=O)NCCOCCOCCOCCOCCOCCOCCOCCOCCC(N)=O)C(C)C [PEG-C-3D-PEP] (H-FLGVLALLG[dY]LAVRP[dF]LPK[dK]KQQK[PEG8]-NH2; N-terminus assumed)
[1]
  cytotoxicity: ~70%
MCF-10A cells [2]
  effect on viability of normal cells: much weaker effect

## CC(C)C[C@H](NC(=O)[C@H](C)NC(=O)[C@H](C)NC(=O)[C@@H](NC(=O)CNC(=O)[C@H](C)NC(=O)[C@H](C)N)C(C)C)C(=O)N[C@@H](CC(C)C)C(=O)NCC(=O)N[C@@H](Cc1ccc(O)cc1)C(=O)N[C@@H](CC(C)C)C(=O)N[C@@H](C)C(=O)N[C@H](C(=O)N[C@@H](CCCNC(=N)N)C(=O)N1CCC[C@H]1C(=O)N[C@@H](Cc1ccccc1)C(=O)N[C@@H](CC(C)C)C(=O)N1CCC[C@H]1C(=O)N[C@@H](CCCCN)C(=O)N[C@@H](CCCCN)C(=O)N[C@@H](CCCCN)C(=O)N[C@@H](CCC(N)=O)C(=O)N[C@@H](CCC(N)=O)C(=O)N[C@@H](CCCCN)C(=O)O)C(C)C [PEP-F44A-L45A-L48A] (H-AAGVAALLGYLAVRPFLPKKKQQK-OH; N-terminus and C-terminus assumed)
MDA-MB-231 cells [3]
  cytotoxic activity of alanine analogs: completely lost their cytotoxic activity

## PEP-FL: Green fluorescein was conjugated to the peptide having SEQ ID NO: 1 (FLGVLALLGYLAVRPFLPKKKQQK; also: green fluorescein conjugated, site not given here)
MDA-MB-231 cells [4]
  uptake of fluorescent peptide by malignant cells: preferentially up-taken by the cancer MDA-MB-231 cells
MDA-MB-231 cells [5]; 12 hours of incubation, FIG. 6C
  effect on nuclei of malignant cells: completely disappeared
MDA-MB-231 cells [5]; time after peptide addition, FIG. 6B
  effect on mitochondria of malignant cells: disappeared within three hours
MCF-10A cells [6]
  uptake of fluorescent peptide by normal cells: not by normal cells
MCF-10A cells [7]
  effect on nuclei of normal cells: no serious damage

## CC(C)C[C@H](NC(=O)[C@H](C)NC(=O)[C@H](CC(C)C)NC(=O)[C@@H](NC(=O)CNC(=O)[C@H](CC(C)C)NC(=O)[C@H](Cc1ccccc1)NC(=O)CCOCCOCCOCCOCCOCCOCCOCCOCCN)C(C)C)C(=O)N[C@@H](CC(C)C)C(=O)NCC(=O)N[C@H](Cc1ccc(O)cc1)C(=O)N[C@@H](CC(C)C)C(=O)N[C@@H](C)C(=O)N[C@H](C(=O)N[C@@H](CCCNC(=N)N)C(=O)N1CCC[C@H]1C(=O)N[C@H](Cc1ccccc1)C(=O)N[C@@H](CC(C)C)C(=O)N1CCC[C@H]1C(=O)N[C@@H](CCCCN)C(=O)N[C@H](CCCCN)C(=O)N[C@@H](CCCCN)C(=O)N[C@@H](CCC(N)=O)C(=O)N[C@@H](CCC(N)=O)C(=O)N[C@@H](CCCCN)C(N)=O)C(C)C [PEG-N-3D-PEP] (H-[PEG8]FLGVLALLG[dY]LAVRP[dF]LPK[dK]KQQK-NH2; C-terminus assumed)
[1]
  cytotoxicity: ~80%
MCF-10A cells [2]
  effect on viability of normal cells: much weaker effect

## CC(C)C[C@H](NC(=O)[C@H](C)NC(=O)[C@H](C)NC(=O)[C@H](C)NC(=O)[C@@H](NC(=O)CNC(=O)[C@H](CC(C)C)NC(=O)[C@@H](N)Cc1ccccc1)C(C)C)C(=O)NCC(=O)N[C@@H](Cc1ccc(O)cc1)C(=O)N[C@@H](CC(C)C)C(=O)N[C@@H](C)C(=O)N[C@H](C(=O)N[C@@H](CCCNC(=N)N)C(=O)N1CCC[C@H]1C(=O)N[C@@H](Cc1ccccc1)C(=O)N[C@@H](CC(C)C)C(=O)N1CCC[C@H]1C(=O)N[C@@H](CCCCN)C(=O)N[C@@H](CCCCN)C(=O)N[C@@H](CCCCN)C(=O)N[C@@H](CCC(N)=O)C(=O)N[C@@H](CCC(N)=O)C(=O)N[C@@H](CCCCN)C(=O)O)C(C)C [PEP-L48A-L50A] (H-FLGVAAALGYLAVRPFLPKKKQQK-OH; N-terminus and C-terminus assumed)
MDA-MB-231 cells [3]
  cytotoxic activity of alanine analogs: completely lost their cytotoxic activity

## CC(C)C[C@H](NC(=O)[C@H](C)NC(=O)[C@H](CC(C)C)NC(=O)[C@@H](NC(=O)CNC(=O)[C@H](CC(C)C)NC(=O)[C@@H](N)Cc1ccccc1)C(C)C)C(=O)N[C@@H](CC(C)C)C(=O)NCC(=O)N[C@H](Cc1ccc(O)cc1)C(=O)N[C@@H](CC(C)C)C(=O)N[C@@H](C)C(=O)N[C@H](C(=O)N[C@@H](CCCNC(=N)N)C(=O)N1CCC[C@H]1C(=O)N[C@H](Cc1ccccc1)C(=O)N[C@@H](CC(C)C)C(=O)N1CCC[C@H]1C(=O)N[C@@H](CCCCN)C(=O)N[C@H](CCCCN)C(=O)N[C@@H](CCCCN)C(=O)N[C@@H](CCC(N)=O)C(=O)N[C@@H](CCC(N)=O)C(=O)N[C@@H](CCCCN)C(=O)O)C(C)C [3D-PEP, FLGVLALLGyLAVRPfLPKkKQQK] (H-FLGVLALLG[dY]LAVRP[dF]LPK[dK]KQQK-OH; N-terminus and C-terminus assumed)
chymotrypsin
  half life against chymotrypsin compared to native peptide: much longer half life

## CC(C)C[C@H](NC(=O)[C@H](C)NC(=O)[C@H](CC(C)C)NC(=O)[C@@H](NC(=O)CNC(=O)[C@H](C)NC(=O)[C@H](C)N)C(C)C)C(=O)N[C@@H](CC(C)C)C(=O)NCC(=O)N[C@@H](Cc1ccc(O)cc1)C(=O)N[C@@H](CC(C)C)C(=O)N[C@@H](C)C(=O)N[C@H](C(=O)N[C@@H](CCCNC(=N)N)C(=O)N1CCC[C@H]1C(=O)N[C@@H](Cc1ccccc1)C(=O)N[C@@H](CC(C)C)C(=O)N1CCC[C@H]1C(=O)N[C@@H](CCCCN)C(=O)N[C@@H](CCCCN)C(=O)N[C@@H](CCCCN)C(=O)N[C@@H](CCC(N)=O)C(=O)N[C@@H](CCC(N)=O)C(=O)N[C@@H](CCCCN)C(=O)O)C(C)C [PEP-F44A-L45A] (H-AAGVLALLGYLAVRPFLPKKKQQK-OH; N-terminus and C-terminus assumed)
MDA-MB-231 cells [3]; MDA-MB-231, FIG. 18
  cytotoxic activity of alanine analogs: completely lost their cytotoxic activity
